Test results: US10603320B2, “Compounds useful for inhibiting ROR-gamma-t” (Eli Lilly and Company, priority 2017, dated 2020)

Assays:
[1] = target: human RORg ligand binding domain fused to yeast GAL4 DNA binding domain (Homo sapiens (Human), UniProt P51449); assay: HEK293 RORg GAL4 Receptor-Reporter Assay; format: cell-based; settings: HEK293 cells, RORg-GAL4/pGL4.31 luciferase reporter, 18 hours; mean ± standard deviation; read-out: hIC50
Protocol: As an indicator of inverse agonist activity, an RAR-related orphan receptor gamma (RORg) receptor-reporter assay (RORg-GAL4/pGL4.31) is performed in HEK293 cells. HEK293 cells are co-transfected using Fugene™ reagent. A reporter plasmid containing a GAL4 binding domain and a minimal adenoviral promoter upstream of a firefly luciferase gene is co-transfected with a plasmid constitutively expressing a human RORg ligand binding domain fused to yeast GAL4 DNA binding domain. Cells are transfected in T150 cm^2 flasks in MEM media without FBS. After 18 hours incubation, transfected cells are trypsinized, plated in 96-well microtiter plates in 3:1 DMEM-F12 media containing 10% FBS, incubated for 4 hours and then exposed to various concentrations of test compounds ranging from about 0.05 nM to 10 μM. After 18 hours of incubations with compounds, cells are lysed and luciferase activity is quantified using standard techniques. Data is fit to a 4 parameter-fit logistics to determine IC50 values.

IL-17 secretion in PBMC = assay: PBMC IL-17 Secretion ELISA; format: cell-based; settings: Homo sapiens; anti-CD3/anti-CD28/IL-23 stimulated PBMC, 48 hours; mean ± standard deviation; read-out: hPBMC IL-17 ELISA (EC50)
Protocol: (§1) PBMC's are isolated from whole blood buffy coats by first combining fresh buffy coats with equal volumes of phosphate buffered saline. Thirty five mL of PBS/buffy coat solution are then gently overlaid onto 15 mL of Ficoll in 50 mL conical tubes. Following centrifugation for 30 minutes at 500×g (with slow acceleration and deceleration) the top layer of plasma is discarded and the layer of cells along the Ficoll interface is collected and pooled. Each 250 mL tube is filled to the top with room temperature RPMI-1640 media. Tubes are spun for 10 minutes at 500×G (with slow acceleration and deceleration), the media is removed by aspiration, and the wash step is repeated. Cells are resuspended in ice cold Recovery Cell Culture Freezing Medium from Life Technologies (Catalog number 12648-010) on ice. The cell concentration is adjusted to 66.7 million cells/mL. Cell are slow frozen at −1° C./minute in vials with 100 million cells and stored in liquid nitrogen.
PBMC are brought out of thaw by resuspending with 1 mL of complete media (RPMI-1640 containing 30 mM HEPES, 100 units/mL penicillin, 100 μg/mL streptomycin, 3.25 mM L-Glutamine, 0.2 μM beta-mercaptoethanol, and 10% FBS) followed by the drop wise addition of 2 mL, 4 mL, 8 mL, and 16 mL of complete media with gentle swirling. Cells are spun down for 5 minutes and the cell pellet is resuspended in complete media. Clumps of cells are broken up by running the cell solution through a 23 gauge syringe needle and a […] cell strainer. One hundred thousand cells per well are added to 384 well polystyrene tissue culture treated flat bottomed plates in a total of 30 μL. […]
Following the incubation period the plates are spun at 200×g for five minutes. […] Absorbance at 492 nm is measured with the Envision multi-label plate reader. […] IC50's for inhibition of IL-17 secretion is calculated based on converted values using a standard 4-parameter fit with maximum inhibition determined from the average values of wells with no added stimulants nor compounds and minimum inhibition from the average values of wells with stimulants alone and no added compound.

[2] = target: human RAR-related orphan receptor beta (hRORb) (Homo sapiens (Human), UniProt Q92753); assay: RORb receptor-ligand competition binding assay; settings: His-tagged hRORb, [3H]-labelled isoxazole benzoic acid ligand
PBMC = assay: cells; format: cell-based; settings: Homo sapiens, 48 h, read-out: Cell TiterGlo Viability (EC50)
Protocol: as §1, with “[…].” for “The cell concentration is adjusted to 66.7 million cells/mL. Cell are slow frozen at −1° C./minute in vials with 100 million cells and stored in liquid nitrogen.”
PBMC are brought out of thaw by resuspending with 1 mL of complete media (RPMI-1640 containing 30 mM HEPES, 100 units/mL penicillin, 100 μg/mL streptomycin, 3.25 mM L-Glutamine, 0.2 μM beta-mercaptoethanol, and 10% FBS) followed by the drop wise addition of 2 mL, 4 mL, 8 mL, and 16 mL of complete media with gentle swirling. Cells are spun down for 5 minutes and the cell pellet is resuspended in complete media. Clumps of cells are broken up by running the cell solution through a 23 gauge syringe needle and a 40 μM cell strainer. […].
Equal volumes of Cell TITERGLO® cell viability testing reagent (Promega Cat #G7573) are added to the cells remaining in the plates, and following a fifteen minute incubation with gentle shaking at room temperature luminescence is measured with the Envision multi-label plate reader. Percent cell death is calculated by setting 100% activity (cell death) to zero luminescence units and minimum activity (max number of viable cells) as the average luminescence units of wells containing stimulants alone and no added compound. IC50's are calculated using a standard four parameter fit.

[3] = target: human RAR-related orphan receptor alpha (hRORa) (Homo sapiens (Human), UniProt P35398); assay: RORa receptor-ligand competition binding assay; settings: His-tagged hRORa, [3H]-25-hydroxycholesterol; mean ± standard deviation
[4] = target: human RAR-related orphan receptor gamma (hRORg) (Homo sapiens (Human), UniProt P51449); assay: RORg receptor-ligand competition binding assay; settings: His-tagged hRORg, [3H]-25-hydroxycholesterol; mean ± standard deviation
Chain of human RAR-related orphan receptor gamma (hRORg) (P51449 whole entry): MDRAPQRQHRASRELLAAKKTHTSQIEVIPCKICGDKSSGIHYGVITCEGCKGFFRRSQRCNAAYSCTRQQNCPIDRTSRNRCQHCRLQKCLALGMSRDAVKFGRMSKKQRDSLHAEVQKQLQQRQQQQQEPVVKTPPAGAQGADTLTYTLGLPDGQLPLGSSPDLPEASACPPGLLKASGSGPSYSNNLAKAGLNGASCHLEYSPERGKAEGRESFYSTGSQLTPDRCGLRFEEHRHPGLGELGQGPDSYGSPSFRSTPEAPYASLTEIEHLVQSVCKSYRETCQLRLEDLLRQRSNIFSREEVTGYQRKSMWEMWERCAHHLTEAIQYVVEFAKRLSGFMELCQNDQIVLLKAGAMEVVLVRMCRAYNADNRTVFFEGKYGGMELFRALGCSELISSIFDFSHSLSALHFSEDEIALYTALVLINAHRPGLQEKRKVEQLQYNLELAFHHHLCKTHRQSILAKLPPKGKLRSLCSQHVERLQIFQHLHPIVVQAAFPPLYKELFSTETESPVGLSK

Chain of human RAR-related orphan receptor beta (hRORb) (Q92753 whole entry): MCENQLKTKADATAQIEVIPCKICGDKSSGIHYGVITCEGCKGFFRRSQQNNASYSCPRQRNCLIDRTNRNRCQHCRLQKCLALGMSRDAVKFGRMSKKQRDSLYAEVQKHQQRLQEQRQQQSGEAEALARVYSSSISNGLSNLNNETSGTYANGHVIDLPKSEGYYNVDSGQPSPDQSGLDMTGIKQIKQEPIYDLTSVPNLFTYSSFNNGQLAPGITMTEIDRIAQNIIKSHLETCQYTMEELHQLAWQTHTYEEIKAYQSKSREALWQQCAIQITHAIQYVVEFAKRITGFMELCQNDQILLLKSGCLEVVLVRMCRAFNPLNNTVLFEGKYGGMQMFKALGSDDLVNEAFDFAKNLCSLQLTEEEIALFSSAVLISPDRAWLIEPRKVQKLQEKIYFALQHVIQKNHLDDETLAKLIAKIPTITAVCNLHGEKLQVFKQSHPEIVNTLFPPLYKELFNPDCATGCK
Chain of human RORg ligand binding domain fused to yeast GAL4 DNA binding domain (P51449 269-508): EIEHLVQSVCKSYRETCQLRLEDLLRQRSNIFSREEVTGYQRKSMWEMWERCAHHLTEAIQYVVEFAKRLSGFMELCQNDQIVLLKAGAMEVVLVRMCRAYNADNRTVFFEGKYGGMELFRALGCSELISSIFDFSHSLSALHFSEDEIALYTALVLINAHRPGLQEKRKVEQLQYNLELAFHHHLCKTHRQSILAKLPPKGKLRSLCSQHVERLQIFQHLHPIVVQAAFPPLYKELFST
Chain of human RAR-related orphan receptor alpha (hRORa) (P35398 whole entry): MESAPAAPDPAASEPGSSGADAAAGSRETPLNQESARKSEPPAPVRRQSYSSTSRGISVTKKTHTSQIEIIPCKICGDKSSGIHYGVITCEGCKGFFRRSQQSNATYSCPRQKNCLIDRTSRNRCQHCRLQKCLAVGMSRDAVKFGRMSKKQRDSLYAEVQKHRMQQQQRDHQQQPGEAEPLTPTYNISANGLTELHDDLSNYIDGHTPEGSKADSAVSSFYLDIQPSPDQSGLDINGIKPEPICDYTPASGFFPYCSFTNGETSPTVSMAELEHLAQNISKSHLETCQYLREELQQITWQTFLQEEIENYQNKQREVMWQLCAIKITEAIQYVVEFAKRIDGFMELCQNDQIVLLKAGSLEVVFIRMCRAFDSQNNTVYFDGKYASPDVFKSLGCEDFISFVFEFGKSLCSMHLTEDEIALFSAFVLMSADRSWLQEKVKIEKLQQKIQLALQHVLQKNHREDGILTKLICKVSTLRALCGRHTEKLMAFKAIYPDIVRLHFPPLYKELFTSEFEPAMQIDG

## CCS(=O)(=O)c1ccc(CNC(=O)c2cc3c(s2)C2(CCN(C(C)c4ccc(C#N)cc4)CC2)OC2(CC2)C3)cc1 (single isomer, unassigned; isomer 1) [Example 8, 1′-[1-(4-Cyanophenyl)ethyl]-5,5-spirocyclopropane-N-[(4-ethylsulfonylphenyl)methyl]spiro[4H-thieno[2,3-c]pyran-7,4′-piperidine]-2-carboxamide isomer 1]
[1]
  IC50: 34.4 ± 6.01 nM
IL-17 secretion in PBMC
  EC50: 10.9 ± 6.44 nM
[2]
  Ki: > 12500 nM
PBMC
  EC50: > 1000 nM
[3]
  Ki: > 20400 nM
[4]
  Ki: 6 ± 1.81 nM

## CCS(=O)(=O)c1ccc(CNC(=O)c2cc3c(s2)C2(CCN([C@H](C)c4cnc(C(F)(F)F)nc4)CC2)OC(C)(C)C3)nc1 [Example 5, N-{[5-(Ethylsulfonyl)pyridin-2-yl]methyl}-5′,5′-dimethyl-1-{(1R)-1-[2-(trifluoromethyl)pyrimidin-5-yl]ethyl}-4′,5′-dihydrospiro[piperidine-4,7′-thieno[2,3-c]pyran]-2′-carboxamide]
[1]
  IC50: 16.7 ± 20.3 nM
IL-17 secretion in PBMC
  EC50: 11 ± 7.67 nM
[2]
  Ki: > 12500 nM
PBMC
  EC50: > 1000 nM
[4]
  Ki: 6.96 ± 3.89 nM

## CCS(=O)(=O)c1ccc(CNC(=O)c2cc3c(s2)C2(CCN([C@H](C)c4cnc(C(F)(F)F)nc4)CC2)OC2(CC2)C3)nc1 [Example 7, N-{[5-(Ethylsulfonyl)pyridin-2-yl]methyl}-1″-(1R)-1-[2-(trifluoromethyl)pyrimidin-5-yl]ethyl-4′H-dispiro[cyclopropane-1,5′-thieno[2,3-c]pyran-7′,4″-piperidine]-2′-carboxamide]
[1]
  IC50: 22.3 ± 23.8 nM
IL-17 secretion in PBMC
  EC50: 14.6 ± 8.24 nM
[2]
  Ki: > 12500 nM
PBMC
  EC50: > 1000 nM
[4]
  Ki: 6.4 ± 2.62 nM
